Experimental findings from patent publication US20240109885A1, “2,3-DIHYDRO-1H-PYRROLO[3,2-B]PYRIDINE DERIVATIVE, PREPARATION METHOD THEREFOR, AND APPLICATION THEREOF” (Abbisko Therapeutics Co., Ltd, priority 2020, published 2024) are described below.

The target of assay [1] is Ba/F3 EGFR-D770-N771ins_SVD (Homo sapiens, UniProt P00533, DUP768-770, cells depend on it). As to the kind of experiment: Cell proliferation assay (CellTiter-Glo), Ba/F3 EGFR-D770-N771ins_SVD cells. The format is cell-based. The conditions noted are these: 72 hrs, CTG assay, * = average of multiple measurements, read-out: Ba/F3 EGFR-D770-N771ins_SVD (nM), IC50 of cell proliferation. On the procedure: (§1) I. Cell proliferation assay (i) Reagents and consumables • Fetal bovine serum (FBS) (GBICO, Cat #10099-141); • CellTiter-Glo® Luminescent Cell Viability Assay Kit (Promega, Cat #G7572); • Black transparent flat-bottomed 96-well plate (Corning®, Cat #3603).
(§2) • SpectraMax Multi-Label Microplate Detector MD, 2104-0010A; • CO2 incubator, Thermo Scientific 3100 Series; • Biosafety cabinet, Thermo Scientific, 1300 Series type A2; • Inverted microscope, Olympus, CKX41SF; • Siemens refrigerator KK25E76TI. (iii) Cell lines and culture conditions
(§3) (iv) Experimental procedures 1. Cell culture and seeding: • (1) Cells in the logarithmic growth phase were harvested, and counted using a platelet counter. Cell viability was detected by the trypan blue exclusion assay to ensure that the cell viability was above 90%. • (2) The cell concentration was adjusted to achieve the final density; and 90 μL of the cell suspension was added to the 96-well plate. • (3) The cells were incubated in the 96-well plate overnight at 37° C. in the presence of 5% CO2 with 95% humidity. 2. TO benchmark data: • (1) 10 μL of PBS was added to each well of the TO flat plate containing the cells. • (2) The CTG reagent was thawed, and the cell plate was equilibrated to room temperature for 30 min. • (3) An equal volume of CTG solution was added to each well. • (4) The cells were shaken for 5 min on an orbital shaker for lysis. • (5) The cell plate was left at room temperature for 20 min to stabilize luminescent signals. • (6) The values of TO luminescent signals were read. 3. Compound dilution and addition • (1) According to the compound information table, a corresponding volume of DMSO was added to the corresponding compound powder to prepare a 10 mM stock solution. • (2) Compound solutions diluted at 1000 fold and 3.16 fold were prepared. • (3) The compound solution diluted at 1000 fold was diluted at 100 fold with PBS, to prepare the compound solutions at 10 fold in 9 concentrations, with the maximum concentration of […]; and the compound solution was diluted at 3.16 fold. 10 μL of medicament solution was added to each well of the seeded 96-well plate. Three replicate wells were provided for each concentration of the compound, and the final concentration of DMSO was 0.1%. • (4) Cells were placed in the 96-well plate containing the medicament and subsequently cultured for 72 hrs at 37° C. in the presence of 5% CO2 with 95% humidity, and then, CTG assay was conducted. 4. Reading of luminescent signals • (1) The CTG reagent was thawed, and the cell plate was equilibrated to room temperature for 30 min. • (2) An equal volume of CTG solution was added to each well. • (3) The cells were shaken for 5 min on an orbital shaker for lysis.
(§4) (4) The cell plate was left at room temperature for 20 min to stabilize the luminescent signals. • (5) Luminescent values were read. Data processing
(§5) The data were analyzed using software GraphPad Prism 7.0, and fitted by the nonlinear S-curve regression to obtain a dose-effect curve, based on which the IC50 value (unit: nM) was calculated, with the specific test results shown in Table 1.
(§6) Cell viability (%)=(Lum test medicament-Lum culture medium control)/(Lum cell control-Lum culture medium control)×100%.
(Cellular ATP, detected with luciferase, serves as a proxy for viable cell number.)

The target in assay [2] is Ba/F3 EGFR-V769_D770insASV (Homo sapiens, UniProt P00533, DUP767-769, cells depend on it). As to the kind of experiment: Cell proliferation assay (CellTiter-Glo), Ba/F3 EGFR-V769_D770insASV cells. The format is cell-based. The conditions noted are these: 72 hrs, CTG assay, * = average of multiple measurements, read-out: Ba/F3 EGFR-V769_D770insASV (nM), IC50 of cell proliferation. On the procedure: as §1, §2, §3, §4, §5, §6

The structures appear in SMILES notation.

Ba/F3 EGFR-D770-N771ins_SVD, sequence (P00533 with tags, fused parts or gaps DUP768-770): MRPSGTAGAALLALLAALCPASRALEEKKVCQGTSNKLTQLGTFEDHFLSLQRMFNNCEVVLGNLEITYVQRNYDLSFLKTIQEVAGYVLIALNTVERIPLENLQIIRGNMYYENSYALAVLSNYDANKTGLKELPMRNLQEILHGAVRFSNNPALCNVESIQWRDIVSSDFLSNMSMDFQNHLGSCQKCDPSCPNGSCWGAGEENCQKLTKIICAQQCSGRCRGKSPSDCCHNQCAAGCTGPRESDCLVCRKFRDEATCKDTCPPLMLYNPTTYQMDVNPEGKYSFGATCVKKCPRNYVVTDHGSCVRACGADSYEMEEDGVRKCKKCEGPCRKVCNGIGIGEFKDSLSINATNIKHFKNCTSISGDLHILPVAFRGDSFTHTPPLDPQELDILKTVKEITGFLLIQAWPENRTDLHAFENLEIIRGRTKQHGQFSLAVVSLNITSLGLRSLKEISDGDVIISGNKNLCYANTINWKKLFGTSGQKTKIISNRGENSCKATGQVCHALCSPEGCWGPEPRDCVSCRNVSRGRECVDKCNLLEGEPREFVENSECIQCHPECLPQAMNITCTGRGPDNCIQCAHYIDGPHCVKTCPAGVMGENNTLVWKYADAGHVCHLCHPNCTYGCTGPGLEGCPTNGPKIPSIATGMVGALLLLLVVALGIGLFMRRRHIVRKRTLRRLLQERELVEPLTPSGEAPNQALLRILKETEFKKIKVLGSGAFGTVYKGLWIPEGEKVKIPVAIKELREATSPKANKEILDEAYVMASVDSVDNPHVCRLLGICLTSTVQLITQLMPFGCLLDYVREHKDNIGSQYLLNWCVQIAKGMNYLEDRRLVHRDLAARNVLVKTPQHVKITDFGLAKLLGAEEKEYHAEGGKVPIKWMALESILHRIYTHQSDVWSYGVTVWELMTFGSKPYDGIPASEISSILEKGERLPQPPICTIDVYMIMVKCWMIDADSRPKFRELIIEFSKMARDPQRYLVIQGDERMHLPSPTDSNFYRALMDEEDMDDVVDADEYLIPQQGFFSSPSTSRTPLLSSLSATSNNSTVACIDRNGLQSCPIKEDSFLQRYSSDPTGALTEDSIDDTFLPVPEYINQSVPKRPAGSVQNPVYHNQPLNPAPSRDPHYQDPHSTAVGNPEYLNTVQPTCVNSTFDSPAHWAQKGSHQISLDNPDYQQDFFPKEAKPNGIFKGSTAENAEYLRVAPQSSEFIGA
Ba/F3 EGFR-V769_D770insASV, sequence (P00533 with tags, fused parts or gaps DUP767-769): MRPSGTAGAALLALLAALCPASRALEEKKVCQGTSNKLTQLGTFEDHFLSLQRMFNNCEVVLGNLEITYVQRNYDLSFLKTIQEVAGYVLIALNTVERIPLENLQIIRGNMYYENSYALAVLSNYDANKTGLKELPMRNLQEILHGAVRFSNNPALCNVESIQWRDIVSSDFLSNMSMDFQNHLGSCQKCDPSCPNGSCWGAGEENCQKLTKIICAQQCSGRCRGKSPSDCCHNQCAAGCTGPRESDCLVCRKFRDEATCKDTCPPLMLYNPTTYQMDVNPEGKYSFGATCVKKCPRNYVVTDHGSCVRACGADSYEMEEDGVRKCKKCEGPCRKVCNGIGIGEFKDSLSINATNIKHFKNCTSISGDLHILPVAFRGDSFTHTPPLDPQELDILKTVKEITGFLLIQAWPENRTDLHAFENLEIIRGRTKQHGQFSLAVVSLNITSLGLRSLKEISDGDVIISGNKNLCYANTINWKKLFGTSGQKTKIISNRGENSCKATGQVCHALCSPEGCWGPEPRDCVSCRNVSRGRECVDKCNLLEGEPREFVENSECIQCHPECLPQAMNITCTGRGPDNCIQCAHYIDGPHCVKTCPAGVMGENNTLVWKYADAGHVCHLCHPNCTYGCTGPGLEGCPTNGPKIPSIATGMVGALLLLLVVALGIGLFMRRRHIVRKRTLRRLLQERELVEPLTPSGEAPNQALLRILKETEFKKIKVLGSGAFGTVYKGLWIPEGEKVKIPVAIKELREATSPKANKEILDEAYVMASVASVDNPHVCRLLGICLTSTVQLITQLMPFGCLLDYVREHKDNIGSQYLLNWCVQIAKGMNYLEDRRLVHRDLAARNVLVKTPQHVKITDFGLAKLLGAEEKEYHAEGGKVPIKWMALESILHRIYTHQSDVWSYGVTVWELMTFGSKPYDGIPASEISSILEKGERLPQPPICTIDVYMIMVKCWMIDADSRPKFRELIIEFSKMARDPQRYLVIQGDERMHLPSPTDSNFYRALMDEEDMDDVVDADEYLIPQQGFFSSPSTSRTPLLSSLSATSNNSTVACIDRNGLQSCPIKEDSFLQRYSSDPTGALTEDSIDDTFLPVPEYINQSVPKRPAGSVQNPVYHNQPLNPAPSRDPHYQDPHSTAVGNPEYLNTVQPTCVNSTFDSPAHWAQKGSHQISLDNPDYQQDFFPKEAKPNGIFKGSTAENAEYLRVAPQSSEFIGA

Regarding `COc1cc(N(C)CCN(C)C)c(N)cc1Nc1nccc(N2CC(C)(C)c3ncc(-c4c(F)cccc4F)cc32)n1` [Example 18, N^4-(4-(6-(2,6-difluorophenyl)-3,3-dimethyl-2,3-dihydro-1H-pyrrolo [3,2-b]pyridin-1-yl)pyrimidin-2-yl)-N^1-(2-(dimethylamino)ethyl)-5-methoxy-N^1-methylbenzene-1,2,4-triamine], the GI50 in assay [1] turned out to be 60 nM; in assay [2] it was 142 nM.
On to `C=CC(=O)Nc1cc(Nc2nccc(N3CC(C)(C)c4ncc(-c5ccccc5F)cc43)n2)c(OC)cc1N(C)CCN(C)C` [Example 19, N-(2-((2-(dimethylamino)ethyl) (methyl)amino)-5-((4-(6-(2-fluoro-phenyl)-3,3-dimethyl-2,3-dihydro-1H-pyrrolo[3,2-b]pyridin-1-yl)pyrimidin-2-yl)amino)-4-methoxy-phenyl)acrylamide], for which the values for the GI50 in assay [1] and in assay [2] were 41.6 nM and 142 nM, respectively.
The corresponding values for `C=CC(=O)Nc1cc(Nc2nccc(N3CC(C)(C)c4nc5c(cc43)CCC5)n2)c(OC)cc1N(C)CCN(C)C` [Example 23, N-(5-((4-(3,3-dimethyl-3,5,6,7-tetrahydrocyclopenta[b]pyrrolo[2,3-e]pyridin-1(2H)-yl)pyrimidin-2-yl)amino)-2-((2-(dimethylamino)ethyl)(methyl)amino)-4-methoxy-phenyl)acrylamide] are 13.8 nM and 26.6 nM.
The corresponding values for `C=CC(=O)Nc1cc(Nc2ncnc(N3CC(C)(C)c4nc(C)ccc43)n2)c(OCC)cc1N(C)CCN(C)C` [Example 25, N-(2-((2-(dimethylamino)ethyl) (methyl)amino)-4-ethoxy-5-((4-(3,3,5-trimethyl-2,3-dihydro-1H-pyrrolo[3,2-b]pyridin-1-yl)-1,3,5-triazin-2-yl)amino)phenyl)acrylamide] are 56.5 nM and 106 nM.
For `C=CC(=O)Nc1cc(Nc2cc(N3CC(C)(C)c4nc5c(cc43)CCC5)ncn2)c(OC)cc1N(C)CCN(C)C` [Example 26, N-(5-((6-(3,3-dimethyl-3,5,6,7-tetrahydrocyclopenta[b]pyrrolo[2,3-e]pyridin-1(2H)-yl)pyrimidin-4-yl)amino)-2-((2-(dimethylamino)ethyl)(methyl)amino)-4-methoxy-phenyl)acrylamide] the same measures were 22.9 nM and 76.1 nM.
As for `C=CC(=O)Nc1cc(Nc2nccc(N3CC(C)(C)c4nc(C)c(C)cc43)n2)c(OCC)cc1N(C)CCN(C)C` [Example 27], the GI50 stood at 31.5 nM in assay [1] and 68.8 nM in assay [2].
Regarding `C=CC(=O)Nc1cc(Nc2nccc(N3CC4(CCCC4)c4nc(C)ccc43)n2)c(OCC(F)(F)F)cc1N(C)CCN(C)C` [Example 40], the GI50 in assay [1] came out at 37 nM.
On the same count and under the same terms, the same measure for `C=CC(=O)Nc1cc(Nc2ncnc(N3CC(C)(C)c4nc(Br)ccc43)n2)c(OC)cc1N(C)CCN(C)C` [Example 41, N-(5-((4-(5-bromo-3,3-dimethyl-2,3-dihydro-1H-pyrrolo[3,2-b]pyridin-1-yl)-1,3,5-triazin-2-yl)amino)-2-((2-(dimethylamino)ethyl) (methyl)amino)-4-methoxyphenyl) acrylamide]: 35.5 nM; for `C=CC(=O)Nc1cc(Nc2nccc(N3CC(C)(C)c4nc(C)c(C)cc43)n2)c(OC(C)C)cc1N(C)CCN(C)C` [Example 43, N-(2-((2-(dimethylamino)ethyl) (methyl)amino)-4-isopropoxy-5-((4-(3,3,5,6-tetramethyl-2,3-dihydro-1H-pyrrolo[3,2-b]pyridin-1-yl)pyrimidin-2-yl)amino)phenyl)acrylamide]: 38.5 nM.
In the case of `C=CC(=O)Nc1cc(Nc2nccc(N3CC(C)(C)c4nc(-c5cn[nH]c5)ccc43)n2)c(OC)cc1N(C)CCN(C)C` [Example 58, N-(5-((4-(3,3-dimethyl-5-(1H-pyrazol-4-yl)-2,3-dihydro-1H-pyrrolo[3,2-b]pyridin-1-yl)pyrimidin-2-yl)amino)-2-((2-(dimethylamino)ethyl)(methyl)amino)-4-methoxyphenyl)acrylamide], the GI50 in assay [1] was found to be 68.2 nM.
Regarding `C=CC(=O)Nc1cc(Nc2nccc(N3CC4(CCOCC4)c4nc(C)ccc43)n2)c(OC)cc1N(C)CCN(C)C` [Example 65], in assay [1], the GI50 came to 108 nM.
As for `C=CC(=O)Nc1cc(Nc2cc(N3CC(C)(C)c4nc(-c5cnn(C)c5)ccc43)ncn2)c(OC)cc1N(C)CCN(C)C` [Example 66, N-(5-((6-(3,3-dimethyl-5-(1-methyl-1H-pyrazol-4-yl)-2,3-dihydro-1H-pyrrolo[3,2-b]pyridin-1-yl)pyrimidin-4-yl)amino)-2-((2-(dimethylamino)ethyl)(methyl)amino)-4-methoxyphenyl)acrylamide], the GI50 in assay [1] was 89.1 nM.
Turning to `C=CC(=O)Nc1cc(Nc2cc(N3CC(C)(C)c4nc(-c5cnn(C)c5)ccc43)ccn2)c(OC)cc1N(C)CCN(C)C` [Example 67, N-(5-((4-(3,3-dimethyl-5-(1-methyl-1H-pyrazol-4-yl)-2,3-dihydro-1H-pyrrolo[3,2-b]pyridin-1-yl)pyridin-2-yl)amino)-2-((2-(dimethyl-amino)ethyl)(methyl)amino)-4-methoxyphenyl)acrylamide], the GI50 in assay [1] was 108 nM.
On to `C=CC(=O)Nc1cc(Nc2cc(N3CC(C)(C)c4nc(C5CC5)ccc43)ncn2)c(OC)nc1N(C)CCN(C)C` [Example 70, N-(5-((6-(5-cyclopropyl-3,3-dimethyl-2,3-dihydro-1H-pyrrolo[3,2-b]pyridin-1-yl)pyrimidin-4-yl)amino)-2-((2-(dimethylamino)ethyl) (methyl)amino)-6-methoxypyridin-3-yl)acrylamide], for which the GI50 in assay [1] worked out at 121 nM.
On the same count and under the same terms, the same measure for `C=CC(=O)Nc1cc(Nc2nccc(N3CC4(CCN(C)C4)c4nc(C)ccc43)n2)c(OC)cc1N(C)CCN(C)C` (stereo not drawn) [Example 71, N-(2-((2-(dimethylamino)ethyl) (methyl)amino)-5-((4-(1,5′-dimethyl-spiro[pyrrolidin-3,3′-pyrrolo[3,2-b]pyridin]-1′(2′H)-yl)pyrimidin-2-yl)amino)-4-methoxyphenyl) acrylamide]: 372 nM; for `C=CC(=O)Nc1cc(Nc2ncnc(N3CC4(CCN(C)C4)c4nc(C)ccc43)n2)c(OC)cc1N(C)CCN(C)C` (stereo not drawn) [Example 72, N-(2-((2-(dimethylamino)ethyl) (methyl)amino)-5-((4-(1,5′-dimethyl-spiro[pyrrolidin-3,3′-pyrrolo[3,2-b]pyridin]-1′(2′H)-yl)-1,3,5-triazin-2-yl)amino)-4-methoxyphenyl) acrylamide]: 298 nM.
Still for that read-out and setting: the same measure for `C=CC(=O)Nc1cc(Nc2nccc(N3CC4(CN(C)C4)c4nc(C)ccc43)n2)c(OC)cc1N(C)CCN(C)C` [Example 73, N-(2-((2-(dimethylamino)ethyl) (methyl)amino)-5-((4-(1,5′-dimethyl-spiro[azetidine-3,3′-pyrrolo[3,2-b]pyridin]-1′(2′H)-yl)pyrimidin-2-yl)amino)-4-methoxyphenyl) acrylamide]: 811 nM; for `C=CC(=O)Nc1cc(Nc2nccc(N3CC4(CC(F)(F)C4)c4nc(C)ccc43)n2)c(OC)cc1N(C)CCN(C)C` [Example 74, N-(5-((4-(3,3-difluoro-5′-methyl-spiro[cyclobutane-1,3′-pyrrolo[3,2-b]pyridin]-1′(2′H)-yl)pyrimidin-2-yl)amino)-2-((2-(dimethylamino)ethyl)(methyl)amino)-4-methoxy-phenyl)acrylamide]: 83.6 nM.
